Results as given in ChEMBL document CHEMBL4396887, “Five-Membered N-Heterocyclic Scaffolds as Novel Amino Bioisosteres at γ-Aminobutyric Acid (GABA) Type A Receptors and GABA Transporters” (J Med Chem, 2019).

Key:
Format in all cases: cell-based
[1] = molecular target: T1, Sodium- and chloride-dependent betaine transporter (Homo sapiens) (UniProt P48065); assay: Inhibition of human BGT1 expressed in Flp-In CHO cells assessed as reduction in [3H]GABA uptake at 100 uM incubated for 3 mins by liquid scintillation counting method relative to control
T1 sequence (whole entry): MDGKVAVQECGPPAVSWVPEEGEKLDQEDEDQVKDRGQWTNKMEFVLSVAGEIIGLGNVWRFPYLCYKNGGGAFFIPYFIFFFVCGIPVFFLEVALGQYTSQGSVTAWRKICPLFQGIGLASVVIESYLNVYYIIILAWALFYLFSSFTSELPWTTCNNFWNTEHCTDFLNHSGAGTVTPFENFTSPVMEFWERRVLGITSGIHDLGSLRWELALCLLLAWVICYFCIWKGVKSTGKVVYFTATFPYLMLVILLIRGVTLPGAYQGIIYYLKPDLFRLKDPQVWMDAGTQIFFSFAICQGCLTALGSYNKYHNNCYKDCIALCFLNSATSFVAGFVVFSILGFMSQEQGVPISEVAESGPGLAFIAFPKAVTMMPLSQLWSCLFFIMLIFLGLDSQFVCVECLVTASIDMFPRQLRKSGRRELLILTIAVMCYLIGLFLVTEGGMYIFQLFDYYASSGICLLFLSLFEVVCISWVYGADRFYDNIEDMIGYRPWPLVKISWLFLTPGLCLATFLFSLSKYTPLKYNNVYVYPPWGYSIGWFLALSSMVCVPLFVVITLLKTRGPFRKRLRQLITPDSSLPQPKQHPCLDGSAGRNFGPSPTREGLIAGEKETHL

[2] = molecular target: Gamma-aminobutyric acid receptor subunit alpha-5/beta-2/gamma-2 (Homo sapiens) (UniProt P47870+P18507+P31644); assay: Agonist activity at recombinant human GABA-A alpha5beta2gamma2S receptor transiently expressed in human tsA201 cells assessed as GABA-induced maximum response incubated for 30 mins and measured up to 90 secs by FMP dye based FLIPR membrane potential blue assay relative to GABA
[3] = molecular target: T2, Sodium- and chloride-dependent GABA transporter 2 (Homo sapiens, UniProt Q9NSD5); assay: Inhibition of human GAT2 expressed in Flp-In CHO cells assessed as reduction in [3H]GABA uptake incubated for 3 mins by liquid scintillation counting method
T2 sequence (Q9NSD5 whole entry): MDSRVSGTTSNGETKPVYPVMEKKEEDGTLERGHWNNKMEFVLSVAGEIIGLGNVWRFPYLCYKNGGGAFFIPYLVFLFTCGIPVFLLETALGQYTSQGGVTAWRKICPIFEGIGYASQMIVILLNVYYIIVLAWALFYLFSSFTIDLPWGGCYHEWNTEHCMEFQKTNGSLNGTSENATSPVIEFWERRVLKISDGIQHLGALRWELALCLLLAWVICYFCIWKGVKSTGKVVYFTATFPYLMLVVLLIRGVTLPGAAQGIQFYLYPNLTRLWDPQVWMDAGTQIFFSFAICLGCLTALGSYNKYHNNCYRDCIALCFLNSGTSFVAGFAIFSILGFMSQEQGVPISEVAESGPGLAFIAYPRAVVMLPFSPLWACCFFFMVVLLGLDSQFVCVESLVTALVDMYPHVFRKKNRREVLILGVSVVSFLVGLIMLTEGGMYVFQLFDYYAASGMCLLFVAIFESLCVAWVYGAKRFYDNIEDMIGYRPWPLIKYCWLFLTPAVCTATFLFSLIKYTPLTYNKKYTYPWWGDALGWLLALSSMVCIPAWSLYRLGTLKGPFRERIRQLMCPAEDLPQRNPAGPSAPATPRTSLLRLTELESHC

[4] = molecular target: T3, GABA-A receptor; alpha-1/beta-2/gamma-2 (Homo sapiens, UniProt P14867+P18507+P47870); assay: Agonist activity at recombinant human GABA-A alpha1beta2gamma2S receptor transiently expressed in human tsA201 cells incubated for 30 mins and measured up to 90 secs by FMP dye based FLIPR membrane potential blue assay
T3 sequence (P14867 whole entry): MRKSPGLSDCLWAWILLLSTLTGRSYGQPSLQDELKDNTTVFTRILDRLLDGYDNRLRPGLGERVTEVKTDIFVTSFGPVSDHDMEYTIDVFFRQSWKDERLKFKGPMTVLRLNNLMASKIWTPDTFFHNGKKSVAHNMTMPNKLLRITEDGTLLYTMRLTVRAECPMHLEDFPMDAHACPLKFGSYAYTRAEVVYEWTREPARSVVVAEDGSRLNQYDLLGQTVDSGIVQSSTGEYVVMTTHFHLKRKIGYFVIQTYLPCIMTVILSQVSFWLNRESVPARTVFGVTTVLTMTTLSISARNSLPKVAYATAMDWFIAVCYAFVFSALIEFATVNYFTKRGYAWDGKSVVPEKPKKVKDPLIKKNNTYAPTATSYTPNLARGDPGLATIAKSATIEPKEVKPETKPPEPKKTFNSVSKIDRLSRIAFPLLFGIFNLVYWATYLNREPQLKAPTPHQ
T3 sequence (P47870 whole entry): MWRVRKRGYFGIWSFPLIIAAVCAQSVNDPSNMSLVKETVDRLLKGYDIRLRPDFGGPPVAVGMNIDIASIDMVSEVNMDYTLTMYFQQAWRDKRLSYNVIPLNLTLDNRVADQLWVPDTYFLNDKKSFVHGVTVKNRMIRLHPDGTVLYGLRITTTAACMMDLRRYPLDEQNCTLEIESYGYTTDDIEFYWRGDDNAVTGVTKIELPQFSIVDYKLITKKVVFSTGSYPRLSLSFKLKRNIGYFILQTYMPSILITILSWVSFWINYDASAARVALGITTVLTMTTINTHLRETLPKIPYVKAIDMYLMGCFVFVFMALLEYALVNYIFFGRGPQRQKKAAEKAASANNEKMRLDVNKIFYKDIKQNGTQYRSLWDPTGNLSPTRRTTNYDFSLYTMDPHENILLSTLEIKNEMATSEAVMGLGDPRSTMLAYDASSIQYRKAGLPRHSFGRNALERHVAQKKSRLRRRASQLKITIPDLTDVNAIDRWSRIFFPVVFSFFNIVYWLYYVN
T3 sequence (P18507 whole entry): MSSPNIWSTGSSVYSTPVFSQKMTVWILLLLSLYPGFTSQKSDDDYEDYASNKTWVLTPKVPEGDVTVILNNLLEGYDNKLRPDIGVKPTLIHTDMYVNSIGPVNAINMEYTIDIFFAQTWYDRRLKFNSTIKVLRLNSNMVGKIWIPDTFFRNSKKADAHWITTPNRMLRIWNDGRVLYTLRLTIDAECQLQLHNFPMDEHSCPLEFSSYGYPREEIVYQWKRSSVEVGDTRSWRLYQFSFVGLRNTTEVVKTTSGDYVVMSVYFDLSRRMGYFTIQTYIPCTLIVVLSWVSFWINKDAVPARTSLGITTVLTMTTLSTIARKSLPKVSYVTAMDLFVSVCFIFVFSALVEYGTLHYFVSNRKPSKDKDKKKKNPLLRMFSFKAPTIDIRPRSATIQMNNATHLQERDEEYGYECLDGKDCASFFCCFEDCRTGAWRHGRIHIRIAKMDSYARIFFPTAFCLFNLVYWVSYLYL

| SMILES | inhibition [1] [%] | Rmax [2] [%] | IC50 [3] [µM] | EC50 [4] [µM] |
| --- | --- | --- | --- | --- |
| O=C(O)C[C@@H]1CCNC1 | > 30 | 86 | 16 | – |
| C[C@@H](C(=O)O)[C@H]1CSC(N)=N1 (relative stereo) | > 30 | 94 | > 100 | 48 |
| CC(C(=O)O)C1CSC(N)=N1 (stereo in doubt; l-10b) | – | – | > 100 | – |
| O=C(O)C[C@H]1CCNC1 | > 30 | 99 | 7.3 | 12 |
| NC1=NC(CC(=O)O)CN1 (stereo unspecified) | > 30 | 90 | 132 | 11 |
| C[C@H]1SC(N)=N[C@@H]1CC(=O)O (relative stereo) | > 30 | 90 | > 100 | – |
| O=C(O)CC1CNC=N1 (stereo unspecified) | > 30 | 88 | 2.9 | 7.6 |
| NC1=NC(CC(=O)O)CS1 (stereo unspecified) | > 30 | 98 | 79.1 | 1.8 |
| CC(C(=O)O)C1CSC(N)=N1 (stereo in doubt; l-10a) | – | – | > 100 | 25 |
| C[C@@H](C(=O)O)[C@@H]1CSC(N)=N1 (relative stereo) | > 30 | 81 | > 100 | 9.7 |
| C[C@@H]1SC(N)=N[C@@H]1CC(=O)O (relative stereo) | > 30 | 92 | > 100 | – |
